The values that follow come from patent publication US9868758B2, “Betulinic proline imidazole derivatives as HIV inhibitors” (HETERO LABS LIMITED, priority 2014, dated 2018).

Where two headings read alike, the source gives them in different places.

For data set [1], the system named is HIV-1 strains, for e.g., 92HT599. The experiment in a line: Antiviral activity: p24 estimation in HIV-1 infected MT-2 cells. Format: cell-based. Particulars: for inhibition at 0.01 µM / inhibition at 0.1 µM / inhibition at 1 µM: p24, ~96 hours. As for the experimental part: MT-2 cells were infected with required number of TCID50's of HIV-1 strains, for e.g., 92HT599. The infected cells were plated at the concentration of 30,000 cells per well in a 96 well plate. Test compound was added to the 96 well plate with the final concentration of DMSO (vehicle—not more than 1%). The plates are then incubated in a CO2 incubator for ˜96 hours (˜4 days) for viral infection. At the end of incubation period an aliquot from each well was taken for p24 estimation. The quantitation of p24 is an estimated index for antiviral activity of the compound. Percent inhibition was calculated with reference to control values (vehicle controls).
p-24 estimation was carried out using Advance biosciences kit as per the procedure detailed by supplier.

A short description of another data set: Cyto-toxicity, MTT assay. The format is cell-based. The settings on record: read-out: Cytotoxicity % viability.
Data set [2] in a line: Single dose oral pharmacokinetic study. Set-up: species or system mice. The settings on record: mouse, in vivo. On the procedure:
The test item was administered through oral route to animals (rat/mice) at 30 mg/kg dose in a suitable vehicle at 10 ml/kg dose volume. Blood samples (˜50 uL at each time point) were collected from retro-orbital plexus using K3 EDTA as anticoagulant in eppendorf tubes at defined time intervals under light ether anesthesia. The samples were centrifuged at 3500×g to separate plasma and stored at −80° C. until analysis.
Sample analysis: Test samples were analyzed using LC-MS-MS after developing fit-for-purpose method for each of test compound.

Setting [3] is: Human immunodeficiency virus 1, MT2, MT-2 cells.
[4] abbreviates: Human immunodeficiency virus 1, MT2, MT-2 cells, p24, read-out: Antiviral activity IC50.

Method for Cyto-toxicity, MTT assay: On day 1 calculate the number of cells required for the assay and seed 3×10^4 cells in 200 μl per well. Weigh the compound and dissolve it in DMSO to get 10 mM stock which is further diluted to 3 mM and 1 mM. The drugs from these stocks were added to plate to get final concentration of 100 μM, 30 μM and 10 μM. […] Incubate for 4 days in 5% CO2 incubator at 37° C. On day 4, 100 μl of medium was removed from each well without disturbing the cells. Add 10 μl of MTT reagent and incubate for 4 hours at 5% CO2 incubator at 37° C. for formation of crystals. Add 200 μl of 0.1N acidic isopropanol to dissolve the crystals and read the plate at 590 nm.

`C=C(C)[C@@H]1CC[C@]2(C(=O)N3CCC[C@H]3c3nc(-c4ccccc4)cn3CCP(=O)(O)O)CC[C@]3(C)[C@H](CC[C@@H]4[C@@]5(C)CC[C@H](OC(=O)[C@H]6C[C@@H](C(=O)O)C6(C)C)C(C)(C)[C@@H]5CC[C@]43C)[C@@H]12` [Compound 23, (1R,3S)-2,2-dimethyl-3-((((1R,3aS,5aR,5bR,7aR,9S,11aR,11bR,13aR,13bR)-5a,5b,8,8,11a-pentamethyl-3a-((S)-2-(4-phenyl-1-(2-phosphonoethyl)-1H-imidazol-2-yl)pyrrolidine-1-carbonyl)-1-(prop-1-en-2-yl)icosahydro-1H-cyclopenta[a]chrysen-9-yl)oxy)carbonyl)cyclo butane-1-carboxylic acid]: in data set [1] (setting [3]), the inhibition (commonly the share of the control response that was lost under treatment) at 0.01 µM was 24%, the inhibition at 0.1 µM was 21% and the inhibition at 1 µM was 66%. Besides, in the data set “Cyto-toxicity, MTT assay”, the viability (commonly a per cent measure of how many cells are alive, often set against a control) at 4 days, 10 µM turned out to be 88%; the viability at 4 days, 30 µM is 77%; the viability at 4 days, 100 µM is 66%.
In the case of `C=C(C)[C@@H]1CC[C@]2(C(=O)N3CCC[C@H]3c3nc(-c4ccncc4)cn3CCN(C)C)CC[C@]3(C)[C@H](CC[C@@H]4[C@@]5(C)CC[C@H](OC(=O)[C@H]6C[C@@H](C(=O)O)C6(C)C)C(C)(C)[C@@H]5CC[C@]43C)[C@@H]12` [Compound 8, (1R,3S)-3-((((1R,3aS,5aR,5bR,7aR,9S,11aR,11bR,13aR,13bR)-3a-((S)-2-(1-(2-(dimethylamino)ethyl)-4-(pyridin-4-yl)-1H-imidazol-2-yl)pyrrolidine-1-carbonyl)-5a,5b,8,8,11a-pentamethyl-1-(prop-1-en-2-yl)icosahydro-1H-cyclopenta[a]chrysen-9-yl)oxy)carbonyl)-2,2-dimethyl cyclobutane-1-carboxylic acid], in data set [1] (setting [4]), the IC50 (commonly the concentration at which inhibition is half-maximal) is 12.5 nM. Further, in data set [2] (po, 30 mg/kg), the AUC(0-t) (usually exposure summed from dosing to a finite time, without extrapolation to infinity) was 243 µg·h/mL and the highest level (Cmax) was 9080 ng/mL.
With `C=C(C)[C@@H]1CC[C@]2(C(=O)N3CCC[C@H]3c3nc(-c4cccc(F)c4)cn3CCN(C)C)CC[C@]3(C)[C@H](CC[C@@H]4[C@@]5(C)CC[C@H](OC(=O)[C@H]6C[C@@H](C(=O)O)C6(C)C)C(C)(C)[C@@H]5CC[C@]43C)[C@@H]12` [Compound 12, (1R,3S)-3-((((1R,3aS,5aR,5bR,7aR,9S,11aR,11bR,13aR,13bR)-3a-((S)-2-(1-(2-(dimethylamino)ethyl)-4-(3-fluorophenyl)-1H-imidazol-2-yl)pyrrolidine-1-carbonyl)-5a,5b,8,8,11a-pentamethyl-1-(prop-1-en-2-yl)icosahydro-1H-cyclopenta[a]chrysen-9-yl)oxy)carbonyl)-2,2-dimethyl cyclobutane-1-carboxylic acid], in data set [1] (setting [3]), the inhibition at 0.01 µM is 24%, the inhibition at 0.1 µM was 44% and the inhibition at 1 µM is 99%. Also, in “Cyto-toxicity, MTT assay”, the viability at 4 days, 10 µM came out at 42%; the viability at 4 days, 30 µM worked out at 31%; the viability at 4 days, 100 µM came out at 5%.
Regarding `C=C(C)[C@@H]1CC[C@]2(C(=O)N3CCC[C@H]3c3nc(-c4ccccc4)cn3C)CC[C@]3(C)[C@H](CC[C@@H]4[C@@]5(C)CC[C@H](OC(=O)CC(C)(C)C(=O)O)C(C)(C)[C@@H]5CC[C@]43C)[C@@H]12` [Compound 15, 2,2-dimethyl-4-oxo-4-(((1R,3aS,5aR,5bR,7aR,9S,11aR,11bR,13aR,13bR)-5a,5b,8,8,11a-pentamethyl-3a-((S)-2-(1-methyl-4-phenyl-1H-imidazol-2-yl)pyrrolidine-1-carbonyl)-1-(prop-1-en-2-yl)icosahydro-1H-cyclopenta[a]chrysen-9-yl)oxy)butanoic acid], in data set [1] (setting [4]), the IC50 was 7.42 nM. Further, in data set [2] (po, 30 mg/kg), the AUC(0-t) is 376 µg·h/mL and the Cmax – broadly, the highest concentration seen after dosing – turned out to be 15300 ng/mL.
The corresponding values for `C=C(C)[C@@H]1CC[C@]2(C(=O)N3CCC[C@H]3c3nc(-c4ccccc4)cn3CCN3CCCC3)CC[C@]3(C)[C@H](CC[C@@H]4[C@@]5(C)CC[C@H](OC(=O)[C@H]6C[C@@H](C(=O)O)C6(C)C)C(C)(C)[C@@H]5CC[C@]43C)[C@@H]12` [Compound 10, (1R,3S)-2,2-dimethyl-3-((((1R,3aS,5aR,5bR,7aR,9S,11aR,11bR,13aR,13bR)-5a,5b,8,8,11a-pentamethyl-3a-((S)-2-(4-phenyl-1-(2-(pyrrolidin-1-yl)ethyl)-1H-imidazol-2-yl)pyrrolidine-1-carbonyl)-1-(prop-1-en-2-yl)icosahydro-1H-cyclopenta[a]chrysen-9-yl)oxy)carbonyl)cyclo butane-1-carboxylic acid] are 7.75 nM, 145 µg·h/mL and 4640 ng/mL.
Turning to `C=C(C)[C@@H]1CC[C@]2(C(=O)N3CCC[C@H]3c3nc(-c4ccccc4)cn3CCOC)CC[C@]3(C)[C@H](CC[C@@H]4[C@@]5(C)CC[C@H](OC(=O)CC(C)(C)C(=O)O)C(C)(C)[C@@H]5CC[C@]43C)[C@@H]12` [Compound 17, 4-(((1R,3aS,5aR,5bR,7aR,9S,11aR,11bR,13aR,13bR)-3a-((S)-2-(1-(2-methoxyethyl)-4-phenyl-1H-imidazol-2-yl)pyrrolidine-1-carbonyl)-5a,5b,8,8,11a-pentamethyl-1-(prop-1-en-2-yl)icosahydro-1H-cyclopenta[a]chrysen-9-yl)oxy)-2,2-dimethyl-4-oxobutanoic acid], the IC50 in data set [1] (setting [4]) is 0.3 nM. In data set [2] (po, 30 mg/kg), the AUC(0-t) was determined as 271 µg·h/mL and the Cmax came out at 13000 ng/mL.
Turning to `C=C(C)[C@@H]1CC[C@]2(C(=O)N3CCC[C@H]3c3nc(-c4ccccc4)cn3CCP(=O)(OCC)OCC)CC[C@]3(C)[C@H](CC[C@@H]4[C@@]5(C)CC[C@H](OC(=O)[C@H]6C[C@@H](C(=O)O)C6(C)C)C(C)(C)[C@@H]5CC[C@]43C)[C@@H]12` [Compound 22, (1R,3S)-3-((((1R,3aS,5aR,5bR,7aR,9S,11aR,11bR,13aR,13bR)-3a-((S)-2-(1-(2-(diethoxyphosphoryl)ethyl)-4-phenyl-1H-imidazol-2-yl)pyrrolidine-1-carbonyl)-5a,5b,8,8,11a-pentamethyl-1-(prop-1-en-2-yl)icosahydro-1H-cyclopenta[a]chrysen-9-yl)oxy)carbonyl)-2,2-dimethyl cyclobutane-1-carboxylic acid], the IC50 in data set [1] (Human immunodeficiency virus 1, MT2, read-out: Antiviral activity IC50 (nM)) is 14.9 nM. Besides, the AUC(0-t) in data set [2] (Mice oral PK @30 mg/kg, plasma, read-out: AUC 0-t) was determined as 215 µg·h/mL. For the same compound, the highest concentration (Cmax) in data set [2] (Mice oral PK @30 mg/kg, plasma, read-out: Cmax) is 5830 ng/mL.
With `C=C(C)[C@@H]1CC[C@]2(C(=O)N3CCC[C@H]3c3nc(-c4cccnc4)cn3CCN(C)C)CC[C@]3(C)[C@H](CC[C@@H]4[C@@]5(C)CC[C@H](OC(=O)[C@H]6C[C@@H](C(=O)O)C6(C)C)C(C)(C)[C@@H]5CC[C@]43C)[C@@H]12` [Compound 6, (1R,3S)-3-((((1R,3aS,5aR,5bR,7aR,9S,11aR,11bR,13aR,13bR)-3a-((S)-2-(1-(2-(dimethylamino)ethyl)-4-(pyridin-3-yl)-1H-imidazol-2-yl)pyrrolidine-1-carbonyl)-5a,5b,8,8,11a-pentamethyl-1-(prop-1-en-2-yl)icosahydro-1H-cyclopenta[a]chrysen-9-yl)oxy)carbonyl)-2,2-dimethyl cyclobutane-1-carboxylic acid], the IC50 in data set [1] (setting [4]) was 2.55 nM. In data set [2] (po, 30 mg/kg), this compound showed an AUC(0-t) of 212 µg·h/mL and a Cmax of 9460 ng/mL.
On to `CN(C)CCn1cc(-c2cccnc2)nc1[C@@H]1CCCN1C(=O)[C@]12CC[C@@H](C3(C)CC3)[C@@H]1[C@H]1CC[C@@H]3[C@@]4(C)CC[C@H](OC(=O)[C@H]5C[C@@H](C(=O)O)C5(C)C)C(C)(C)[C@@H]4CC[C@@]3(C)[C@]1(C)CC2` [Compound 19, (1R,3S)-3-((((1R,3aS,5aR,5bR,7aR,9S,11aR,11bR,13aR,13bR)-3a-((S)-2-(1-(2-(dimethylamino)ethyl)-4-(pyridin-3-yl)-1H-imidazol-2-yl)pyrrolidine-1-carbonyl)-5a,5b,8,8,11a-pentamethyl-1-(1-methylcyclopropyl)icosahydro-1H-cyclopenta[a]chrysen-9-yl)oxy)carbonyl)-2,2-dimethylcyclobutane-1-carboxylic acid], for which, in data set [1] (setting [4]), the IC50 is 7.76 nM. In data set [2] (po, 30 mg/kg), the AUC(0-t) came out at 97.4 µg·h/mL and the Cmax is 4260 ng/mL.
The corresponding values for `C=C(C)[C@@H]1CC[C@]2(C(=O)N3CCC[C@H]3c3nc(C(C)(C)C)cn3CCN(C)C)CC[C@]3(C)[C@H](CC[C@@H]4[C@@]5(C)CC[C@H](OC(=O)[C@H]6C[C@@H](C(=O)O)C6(C)C)C(C)(C)[C@@H]5CC[C@]43C)[C@@H]12` [Compound 11, (1R,3S)-3-((((1R,3aS,5aR,5bR,7aR,9S,11aR,11bR,13aR,13bR)-3a-((S)-2-(4-(tert-butyl)-1-(2-(dimethylamino)ethyl)-1H-imidazol-2-yl)pyrrolidine-1-carbonyl)-5a,5b,8,8,11a-pentamethyl-1-(prop-1-en-2-yl)icosahydro-1H-cyclopenta[a]chrysen-9-yl)oxy)carbonyl)-2,2-dimethyl cyclobutane-1-carboxylic acid] are 3.58 nM, 755 µg·h/mL and 18100 ng/mL.
